The record followed here is PubChem BioAssay AID2060896 (Molecular Pharmacology Branch, DTP, NCI, 2025).

The subject of the test is 941728-121-R-J1-PDC complex spheroid viability. Kind of test: Anticancer human tumor 941728-121-R-J1-PDC patient-derived lung adenocarcinoma cell line growth inhibition [RAS]. Conditions: for viability, T/C: stronger effect = lower value. An excerpt:
RAS pathway inhibitors in Combinations in Complex Spheroids
A high-throughput screen of multi-cell type tumor spheroids was designed to identify active combinations of RAS pathway inhibitors and targeted small molecules. Complex spheroids include a stromal component modeled by human endothelial cells (HUVEC) and fibroblasts modeled by human mesenchymal stem cells (MSCs). The concentration ranges selected for each drug and investigational agent were based upon clinically achievable concentrations if the clinical Cmax of the agent was known.
Compounds. The drugs and investigational agents: abemaciclib (NSC768073), cobimetinib (NSC768068), divarasib (GDC6063, NSC841802), docetaxel (NSC628503), GDC-1971 (RLY-1971, NSC841576), gemcitabine (NSC613327), inavolisib (NSC800729), ipatasertib (NSC767898), KB-0742 (NSC834161), MRTX-1133 (NSC836407), osimertinib (NSC779217), RMC-4630 (NSC839698), RMC-6236 (NSC851965), RMC-6291 (NSC852671), Ro-3306 (NSC812927), sapanisertib (NSC764658), SN-38 (NSC673596), staurosporine (NSC755774), SY5609 (NSC837396), and tovorafenib (DAY101, NSC766906), were obtained from the National Cancer Institute (NCI) Developmental Therapeutics Program Chemical Repository. The FDA-approved anticancer drug set is available from the NCI Developmental Therapeutics Program. […] The stock solutions were prepared in dimethyl sulfoxide (DMSO, Sigma-Aldrich, St. Louis, MO, cat. D2650) at 800-fold the tested concentration and stored at -70 degrees C prior to their use. All drugs and investigational agents were tested over a range starting from a high concentration at or near the clinical Cmax and decreasing in half-log increments. If the clinical Cmax for an agent had not been determined, the highest concentration tested was 10 microM.
Cell Culture. All cells were maintained in an incubator at 37 degrees C and 5% CO2 with 95% humidity. The PDC lines were cultured according to standard operating procedures established by the NCI PDMR. All PDCs were thawed and cultured in Matrigel-coated flasks prepared with a working solution of 1X Ham's F-12 nutrient mix, without supplementation (Invitrogen, Waltham, MA, cat. 11765054), 100 U/mL penicillin-streptomycin (Invitrogen, cat. 15140122), and 2.5% Matrigel (Corning Inc., Corning, NY, cat. 354248) for the first three passages. The 362531-283-R-J2-PDC and 782815-120-R-J1-PDC lines were cultured in 6C/Colon 1B media, which includes advanced DMEM/F-12 (Thermo Fisher Scientific, cat. 12634028), 10 mM HEPES (Thermo Fisher Scientific, cat. 15630080), 1X GlutaMAX supplement (Thermo Fisher Scientific, cat. 35050061), 0.1 mg/mL primocin (InvivoGen, San Diego, CA, cat. ant-pm-2), 10% defined fetal bovine serum, heat inactivated (HyClone Laboratories Inc., Logan, UT, cat. SH30070.03HI), 50% L-WRN conditioned media (ATCC, cat. CRL-3276), 1.25 mM N-Acetyl-L-cysteine (Sigma-Aldrich, cat. A9165), 10 mM nicotinamide (Sigma-Aldrich, cat. N0636), 1X B-27 supplement (Thermo Fisher Scientific, cat. 17504044), 1X N-2 supplement (Thermo Fisher Scientific, cat. 17502048), 50 ng/mL human EGF (Thermo Fisher Scientific, cat. PHG0311), and 10 microM Y-27632 dihydrochloride (Tocris Bioscience, cat. 1254). The K12877-001-R-J1-PDC line was cultured in 6I media, which includes all 6C/Colon 1B media plus 10 ng/mL human FGF-10 (PeproTech, cat. 100-26), 1 ng/mL human FGF-2 (PeproTech, cat. 100-18B), 1 µM prostaglandin E2 (Tocris Bioscience, cat. 2296), […] hydrocortisone (Sigma-Aldrich, cat. H4001), and […] bovine insulin (Sigma-Aldrich, cat. I6634). The K86415-001-R-J1-PDC line was cultured in 6D media, which includes all 6C/Colon 1B media components minus the L-WRN conditioned media. The 485176-168-R4-J1-PDC was cultured in PANC media, which includes all 6C/Colon 1B media plus 100 ng/mL human FGF-10 (PeproTech, cat. 100-26), 500 nM SB-431542 (Selleckchem, cat. S1067), and 10 nM gastrin (Tocris Bioscience, cat. 3006). […]

Setting [1] is: compound alone, run of 07/15/2024.
The mark [2] stands for this setting: compound alone, run of 07/09/2024.

SMILES strings stand for the structures. pIC50: −log10 of the molar value. Where “and” joins values, the source holds several entries; their conditions need not be identical. Equal values may be shown once.
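Also: spheroids exposed to compounds for 7 days before readout.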
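For viability, T/C in this document: 100% = DMSO vehicle control viability.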

For the molecule `C#Cc1c(F)ccc2cc(O)cc(-c3ncc4c(N5CC6CCC(C5)N6)nc(OCC56CCCN5CC(F)C6)nc4c3F)c12` (configuration not stated), the viability, T/C is 87.4% [middle of 8 runs] (compound 0.0316 µM); 82.9% [middle of 8 runs] (compound 0.1 µM); 61.2% [middle of 8 runs] (compound 0.316 µM); 41.3% [middle of 8 runs] (compound 1 µM); 32.1% [middle of 8 runs] (compound 3.16 µM); 23.3% [middle of 8 runs] (compound 10 µM). Also, the IC50 under setting [1] was 603 nM [middle of 8 runs].

On to `C=CC(=O)N1CCN(c2nc(OCC3CCCN3C)nc3c(F)c(-c4nc(N)cc(C)c4C(F)(F)F)c(Cl)cc23)C(C)C1` (configuration not stated), for which the viability, T/C runs as follows: (compound 0.00316 µM) 21.7% [middle of 12 runs]; (compound 0.01 µM) 19.7% [middle of 12 runs]; (compound 0.0316 µM) 19.9% [middle of 12 runs]; (compound 0.1 µM) 19.5% [middle of 12 runs]; (compound 0.316 µM) 22.8% [middle of 12 runs]; (compound 1 µM) 21% [middle of 12 runs]. In addition, the negative-log IC50 (pIC50) runs as follows: under setting [1], above 8.50; (curve of compound) above 8.50.

Take `C=CC(=O)Nc1cc(Nc2nccc(-c3cn(C)c4ccccc34)n2)c(OC)cc1N(C)CCN(C)C`: the viability, T/C (compound 0.00316 µM) is 98.4% [middle of 4 runs]; the viability, T/C (compound 0.01 µM) is 82.8% [middle of 4 runs]; the viability, T/C (compound 0.0316 µM) is 68.2% [middle of 4 runs]; the viability, T/C (compound 0.1 µM) was 67.7% [middle of 4 runs]; the viability, T/C (compound 0.316 µM) is 55.6% [middle of 4 runs]; the viability, T/C (compound 1 µM) was 47.3% [middle of 4 runs].

For `CC(C)NCC(C(=O)N1CCN(c2ncnc3c2C(C)CC3O)CC1)c1ccc(Cl)cc1` (configuration not stated), the viability, T/C runs as follows: (compound 0.0316 µM) 93.8% [middle of 4 runs]; (compound 0.1 µM) 90.7% [middle of 4 runs]; (compound 0.316 µM) 74.2% [middle of 4 runs]; (compound 3.16 µM) 54.6% [middle of 4 runs]; (compound 10 µM) 42.7% [middle of 4 runs]. For the same molecule, the pIC50 (curve of compound) was 6.07 and 5.26 and 5.58.

For `CC(C)n1nc(-c2ccc3oc(N)nc3c2)c2c(N)ncnc21`, the viability, T/C (compound 0.000316 µM) is 102% [middle of 4 runs]; the viability, T/C (compound 0.001 µM) is 86.9% [middle of 4 runs]; the viability, T/C (compound 0.00316 µM) was 60.5% [middle of 4 runs]; the viability, T/C (compound 0.01 µM) is 55.1% [middle of 4 runs]; the viability, T/C (compound 0.0316 µM) was 40.9% [middle of 4 runs]; the viability, T/C (compound 0.1 µM) was 34.5% [middle of 4 runs]. Also, the IC50 (curve of compound) is 11.4 nM [middle of 4 runs].

On to `CC(Nc1ccc2c(c1)OCCn1cc(N3C(=O)OCC3C(F)F)nc1-2)C(N)=O` (configuration not stated), for which the viability, T/C (compound 0.0316 µM) was 81% [middle of 4 runs]; the viability, T/C (compound 0.1 µM) is 53.6% [middle of 4 runs]; the viability, T/C (compound 0.316 µM) is 40.8% [middle of 4 runs]; the viability, T/C (compound 1 µM) was 42.5% [middle of 4 runs]; the viability, T/C (compound 3.16 µM) was 37.6% [middle of 4 runs]; the viability, T/C (compound 10 µM) was 34.7% [middle of 4 runs]. Further, the 50% inhibitory concentration (IC50) (curve of compound) is 144 nM [middle of 4 runs].

Consider `CC1(C)CCC(Nc2ncc(C(F)(F)F)c(-c3c[nH]c4c(P(C)(C)=O)c(C#N)ccc34)n2)CN1` (configuration not stated), for which the viability, T/C is, setting by setting: (compound 0.000949 µM) 83.9% [middle of 4 runs]; (compound 0.003 µM) 79.2% [middle of 4 runs]; (compound 0.00949 µM) 62.7% [middle of 4 runs]; (compound 0.03 µM) 63.8% [middle of 4 runs]; (compound 0.0949 µM) 65% [middle of 4 runs]; (compound 0.3 µM) 53.4% [middle of 4 runs]. Also, the pIC50 (curve of compound) was below 6.52.

With `CCN1CCN(Cc2ccc(Nc3ncc(F)c(-c4cc(F)c5nc(C)n(C(C)C)c5c4)n3)nc2)CC1`, the viability, T/C is, setting by setting: (compound 0.00316 µM) 93.9% [middle of 4 runs]; (compound 0.01 µM) 80.5% [middle of 4 runs]; (compound 0.0316 µM) 65.2% [middle of 4 runs]; (compound 0.1 µM) 57.7% [middle of 4 runs]; (compound 0.316 µM) 70.8% [middle of 4 runs]; (compound 1 µM) 72.4% [middle of 4 runs]. For the setting “curve of compound”, the negative-log IC50 (pIC50) was below 6.00.

Take `CCc1c2c(nc3ccc(O)cc13)-c1cc3c(c(=O)n1C2)COC(=O)[C@]3(O)CC`: the viability, T/C was 85.2% [middle of 4 runs] (compound 0.000949 µM); 73.3% [middle of 4 runs] (compound 0.003 µM); 62.9% [middle of 4 runs] (compound 0.00949 µM); 67.4% [middle of 4 runs] (compound 0.03 µM); 58.9% [middle of 4 runs] (compound 0.0949 µM); 50% [middle of 4 runs] (compound 0.3 µM). The pIC50 (curve of compound) was 7.35 and < 6.52 and 7.05.

For the molecule `CCn1c(-c2cc(N3CCN(C)CC3)cnc2C(C)OC)c2c3cc(ccc31)-c1csc(n1)CC(NC(=O)C1CC1C)C(=O)N1CCCC(N1)C(=O)OCC(C)(C)C2` (configuration not stated), the viability, T/C by setting is: (compound 0.000949 µM) 28.7% [middle of 8 runs]; (compound 0.003 µM) 23.8% [middle of 8 runs]; (compound 0.00949 µM) 17.1% [middle of 8 runs]; (compound 0.03 µM) 13.9% [middle of 8 runs]; (compound 0.0949 µM) 14.7% [middle of 8 runs]; (compound 0.3 µM) 13.4% [middle of 8 runs]. Besides, under setting [2], the pIC50 was above 9.02.

In the case of `CCn1c(-c2cccnc2C(C)OC)c2c3cc(ccc31)N1CCOC(CC(NC(=O)C(C(C)C)N(C)C(=O)C3(F)CCN(C(=O)C#CC(C)(C)N(C)C)CC3)C(=O)N3CCCC(N3)C(=O)OCC(C)(C)C2)C1` (configuration not stated), the viability, T/C runs as follows: (compound 0.000949 µM) 22.6% [middle of 8 runs]; (compound 0.00949 µM) 24.6% [middle of 8 runs]; (compound 0.03 µM) 24.1% [middle of 8 runs]; (compound 0.0949 µM) 24.9% [middle of 8 runs]; (compound 0.3 µM) 24.9% [middle of 8 runs]. Further, the negative logarithm of the IC50 (pIC50) under setting [2] is > 9.02 and 8.34.

Take `C[C@@H](NC(=O)c1ncnc(N)c1Cl)c1ncc(C(=O)Nc2cc(C(F)(F)F)c(Cl)cn2)s1`: the viability, T/C (compound 0.0316 µM) is 114% [middle of 4 runs]; the viability, T/C (compound 0.1 µM) is 112% and 129% and 115% (2×); the viability, T/C (compound 0.316 µM) is 120% [middle of 4 runs]; the viability, T/C (compound 1 µM) is 112% [middle of 4 runs]; the viability, T/C (compound 3.16 µM) was 83.2% [middle of 4 runs]; the viability, T/C (compound 10 µM) is 45.7% [middle of 4 runs]. Further, for the setting “curve of compound”, the concentration for half-maximal inhibition (IC50) is 8.88 µM [middle of 4 runs].

`O=C(c1ccc(F)c(F)c1Nc1ccc(I)cc1F)N1CC(O)([C@@H]2CCCCN2)C1`: the viability, T/C runs as follows: (compound 0.00316 µM) 80.3% [middle of 4 runs]; (compound 0.01 µM) 69% [middle of 4 runs]; (compound 0.1 µM) 42.2% [middle of 4 runs]; (compound 0.316 µM) 32.5% [middle of 4 runs]; (compound 1 µM) 27.8% [middle of 4 runs].
